The text below walks through data of patent EP1492876B1, “CATIONIC AMPHIPHILES FOR INTRACELLULAR DELIVERY OF THERAPEUTIC MOLECULES, COMPOSITION, PROCESS AND USE THEREOF” (COUNCIL OF SCIENTIFIC AND INDUSTRIAL RESEARCH, priority 2002, dated 2003).

The nature of series [1]: MTT based viability assay (toxicity assay). The class given is cell-based. Conditions: monkey; COS-1 cells, 3:1 charge ratio. As to the method:
Toxicity Assays. An MTT based viability assay was performed to assess the cytotoxicity of lipids 1-5 at various lipid:DNA charge ratios with COS-1 cells as described previously (Banerjee, R. et al. 1999). […] For lipids 1, 4 and 5 at a 3:1 charge ratio the toxicity varied from 15-25 % of the treated cells. The toxicity of lipid 2 (with shorter alkyl chains) may originate from its probable detergent-like cell-lysing activity.
On the technique in general: Tetrazolium dyes change colour on reduction, which living cells bring about.

Series [2] deals with DNA. Nature of the series: Lipid:DNA interactions assay (ethidium bromide exclusion, fluorescence). In kind it is binding. Conditions: EtBr: pCMV β-gal complex titrated with lipid, TE buffer pH 8.0; Figure 2. The text has this:
Lipid:DNA Interactions Assay. Intercalation-induced fluorescence increase and competition with cationic lipids to bind to DNA has made Ethidium Bromide (EtBr) an excellent tool to study cationic lipid-DNA interactions. To assess the representative lipid:DNA interactions for the cationic lipids of the present invention, we have titrated the EtBr: pCMV β-gal complex with increasing amounts of cationic lipids 1-5.
The extent of Et.Br binding to the DNA was monitored by the changes in the fluorescence. EtBr fluorescence was monitored in Hitachi 4500 fluorimeter by setting the excitation wavelength at 518 nm and emission wavelength at 585 nm. To one ml of TE buffer (pH 8.0), 0.78 nmoles of DNA and 2.5 nmoles of EtBr were added. The change in fluorescence was monitored after adding small volumes of lipids 1-5 to the EtBr:DNA complex. Arbitrary fluorescence values were recorded after allowing sufficient time for equilibration. […] Percent fluorescence was calculated considering the fluorescence value in the absence of lipid as 100.

Series [3] concerns COS-1 cells. Nature of the series: Cell transfection (β-galactosidase reporter gene activity). The class given is cell-based. Conditions: 0.15 µg plasmid DNA, lipid 0.05 - 4.3 nmoles, reporter gene activity after 48 h, Figure 1, compared with DMRIE. As to the method:
Similar examples of plasmid include PGL-2 and PGL-3 of Promega and others.
Cell Transfection. COS-1 cells were seeded at a density of 15,000 cells/well in a 96-well plate eighteen hours before the transfection. 0.15 µg of plasmid DNA was complexed with varying amount of lipid (0.05 - 4.3 nmoles) in 13 µl of plain DMEM medium for 30 min. The charge ratios were varied from 0.1 : 1 to 9 : 1 (+/-) over this range of the lipid. The complex was diluted to 100 µl with plain DMEM and added to the wells. After 3 h of incubation, 100 µl of DMEM with 10 % FCS was added to the cells. The medium was changed to 10 % complete medium after 24 h and the reporter gene activity was estimated after 48 h. The cells were washed twice with PBS and lysed in 50 µl of lysis buffer (0.25 M Tris.HCl, pH 8.0 and 0.5% NP40). Care was taken to ensure complete lysis. The β-galactosidase activity per well was estimated by adding 50 µl of 2X substrate solution (1.33 mg/ml of ONPG, 0.2 M sodium phosphate, pH 7.15 and 2 mM magnesium chloride) to the lysate in a 96-well plate. Absorption at 405 nm was converted to β-galactosidase units by using calibration curve constructed with pure commercial β-galactosidase enzyme. The values of β-galactosidase units in replicate plates assayed on the same day varied by less than 30 %. […]
In general terms: A reporter such as luciferase makes a cellular process visible.

Molecules are shown by their SMILES.

For `CCCCCCCC/C=C\CCCCCCCC[N+]1(CCCCCCCCCCCCCCCCCC)CC(O)C(O)C1` (stereo not drawn) [compound 5], the cytotoxicity in series [1] lay within 15 to 25%. Besides, the “lipid:DNA interaction (ability to exclude ethidium bromide from DNA)” value (shortened to “lipid:DNA interaction”) in series [2] was “interact poorly with DNA”.

Turning to `CCCCCCCCCCCCCCCC[N+]1(CCCCCCCCCCCCCCCC)CC(O)C(O)C1` (stereo not drawn) [compound 3], the “lipid:DNA interaction” value in series [2] is recorded as “interact with DNA equally well up to lipid:DNA ratio of 1.25 or so”.

As to `CCCCCCCCCCCCCC[N+]1(CCCCCCCCCCCCCC)CC(O)C(O)C1` (stereo not drawn) [compound 2], the “in vitro transfection efficiency” value in series [3] is given as “comparable to or better than that of DMRIE”. Besides, the “lipid:DNA interaction” value in series [2] was “interact with DNA equally well up to lipid:DNA ratio of 1.25 or so”.

Regarding `CCCCCCCCCCCCCCCCCC[N+]1(CCCCCCCCCCCCCCCCCC)CC(O)C(O)C1` (stereo not drawn) [compound 4], in series [1], the cytotoxicity lay within 15 to 25%. Further, the “lipid:DNA interaction” value in series [2] is “interact poorly with DNA”.

In the case of `CCCCCCCCCCCC[N+]1(CCCCCCCCCCCC)CC(O)C(O)C1` (stereo not drawn) [compound 1], in series [1], the cytotoxicity lay in the range of 15 to 25%. The “lipid:DNA interaction” value in series [2] is given as “interact poorly with DNA”.
